# From the supplement of paper PMC7661543
# ± gives the standard deviation of the averaged measurements.
# Tested on: BT-20
# Experiment: relative cell number vs DMSO control (72 h) (% of DMSO); higher = less growth inhibition (more cells)
# Conditions: sgRNA knockout: sgNT, 1000 nM
# Description: (§1)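 QMAP-Seq: a pool of 5 breast cancer cell lines (ZR-75-1, SKBR3, HCC-38, MDA-MB-231, BT-20), each carrying 12 doxycycline-inducible Cas9 sgRNA perturbations (11 knockouts plus non-targeting sgNT), was treated with compounds for 72 h at four 10-fold doses (10 nM-10 uM or 1 nM-1 uM range). Barcodes were amplified and sequenced, and cell number was interpolated from 293T spike-in standard curves. The result is expressed as % of the median of DMSO wells. Two biological replicates.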
row,Compound,relative cell number
1,C=C1C(=O)O[C@H]2[C@H]1CC/C(C)=C/CC[C@@]1(C)O[C@@H]21 [Parthenolide],93.2 ± 14
2,COc1cc(/C=C/C(=O)CC(=O)/C=C/c2ccc(O)c(OC)c2)ccc1O [Curcumin],95.9 ± 6.5
3,Nc1nc(OCc2cc(Br)cs2)c2[nH]cnc2n1 [Lomeguatrib],89.5 ± 11
4,C=C(c1ccc(C(=O)O)cc1)c1cc2c(cc1C)C(C)(C)CCC2(C)C [Bexarotene],112 ± 33
5,Clc1ccc(C2(c3ccc(-c4cn[nH]c4)cc3)CCNCC2)cc1 [AT7867],77.8 ± 12
6,CS(=O)(=O)c1cccc(CNc2nc(Nc3ccc4c(c3)CCC(=O)N4)ncc2C(F)(F)F)c1,105.9 ± 0.85
7,N#Cc1ccc(COC[C@H]2O[C@@H](n3c(NCc4ccc(Cl)c(Cl)c4)nc4c(N)ncnc43)[C@H](O)[C@@H]2O)cc1,91.1 ± 26
8,CN(Cc1cnc2nc(N)nc(N)c2n1)c1ccc(C(=O)N[C@@H](CCC(=O)O)C(=O)O)cc1 [Methotrexate],51.2 ± 16
9,CC(C)CC(=O)Nc1n[nH]c2c1CN(C(=O)C1CCN(C)CC1)C2(C)C,43.3 ± 19
10,CCCc1nn(C)c2c(=O)[nH]c(-c3cc(S(=O)(=O)N4CCN(C)CC4)ccc3OCC)nc12 [Sildenafil],95.2 ± 0.97
11,O=C1CCC(N2C(=O)c3ccccc3C2=O)C(=O)N1 (stereo not drawn) [Thalidomide],114 ± 18
12,CC(C)(C(=O)NCC(F)(F)C(F)(F)F)C(=O)N[C@@H]1C(=O)Nc2ccccc2-c2ccccc21,107 ± 33
13,CC[C@@]1(O)C(=O)OCc2c1cc1n(c2=O)Cc2cc3c(CN(C)C)c(O)ccc3nc2-1 [Topotecan],30.9 ± 2.8
14,C=CC(=O)Nc1cc2c(Nc3ccc(F)c(Cl)c3)ncnc2cc1OCCCN1CCOCC1 [Canertinib],75.3 ± 11

# Same assay, conditions: sgRNA knockout: sgNT, 10000 nM
row,Compound,relative cell number
1,FC(F)c1nc2ccccc2n1-c1nc(N2CCOCC2)nc(N2CCOCC2)n1 [ZSTK474],55.4 ± 3
2,Cc1nc(Nc2ncc(C(=O)Nc3c(C)cccc3Cl)s2)cc(N2CCN(CCO)CC2)n1 [Dasatinib],63.9 ± 7.7
3,CN/C(=N\CCSCc1nc[nH]c1C)NC#N [Cimetidine],106 ± 15
4,COc1cc(CCc2cc(NC(=O)c3ccc(N4CC(C)NC(C)C4)cc3)n[nH]2)cc(OC)c1 (stereo not drawn) [AZD4547],56.5 ± 2.4
5,CC(C)(C)c1ccc(S(=O)(=O)NCc2ccc(C(=O)Nc3cccnc3)cc2)cc1 [STF31],72.8 ± 18
6,CCC[C@H](NC(=O)/C(C#N)=C/c1cccc(Br)n1)c1ccccc1 [WP1130],8.98 ± 1.4
7,O=[N+]([O-])c1ccc(O)c2ncccc12 [Nitroxoline],56.1 ± 6.1
8,O=C1c2c(O)ccc(O)c2C(=O)c2c(NCCNCCO)ccc(NCCNCCO)c21 [Mitoxantrone],5.45 ± 2
9,N[C@@H](CC(=O)N1CCn2c(nnc2C(F)(F)F)C1)Cc1cc(F)c(F)cc1F [Sitagliptin],123 ± 24
10,CC(C)[C@H](O)C(=O)N[C@@H](C)C(=O)N[C@@H]1C(=O)N(C)CCc2ccccc21 [Semagacestat],113 ± 23
11,C=C1C(=O)O[C@H]2[C@H]1CC/C(C)=C/CC[C@@]1(C)O[C@@H]21 [Parthenolide],96.5 ± 20
12,COc1cc(/C=C/C(=O)CC(=O)/C=C/c2ccc(O)c(OC)c2)ccc1O [Curcumin],95.3 ± 16
13,Nc1nc(OCc2cc(Br)cs2)c2[nH]cnc2n1 [Lomeguatrib],93.7 ± 13
14,C=C(c1ccc(C(=O)O)cc1)c1cc2c(cc1C)C(C)(C)CCC2(C)C [Bexarotene],137 ± 30
15,Clc1ccc(C2(c3ccc(-c4cn[nH]c4)cc3)CCNCC2)cc1 [AT7867],24.8 ± 5.2
16,CS(=O)(=O)c1cccc(CNc2nc(Nc3ccc4c(c3)CCC(=O)N4)ncc2C(F)(F)F)c1,57 ± 3.3
17,N#Cc1ccc(COC[C@H]2O[C@@H](n3c(NCc4ccc(Cl)c(Cl)c4)nc4c(N)ncnc43)[C@H](O)[C@@H]2O)cc1,73.2 ± 18
18,CN(Cc1cnc2nc(N)nc(N)c2n1)c1ccc(C(=O)N[C@@H](CCC(=O)O)C(=O)O)cc1 [Methotrexate],37.8 ± 12
19,CC(C)CC(=O)Nc1n[nH]c2c1CN(C(=O)C1CCN(C)CC1)C2(C)C,24.3 ± 1
20,CCCc1nn(C)c2c(=O)[nH]c(-c3cc(S(=O)(=O)N4CCN(C)CC4)ccc3OCC)nc12 [Sildenafil],107 ± 3.9
21,O=C1CCC(N2C(=O)c3ccccc3C2=O)C(=O)N1 (stereo not drawn) [Thalidomide],113 ± 9
22,CC(C)(C(=O)NCC(F)(F)C(F)(F)F)C(=O)N[C@@H]1C(=O)Nc2ccccc2-c2ccccc21,121 ± 1.3
23,CC[C@@]1(O)C(=O)OCc2c1cc1n(c2=O)Cc2cc3c(CN(C)C)c(O)ccc3nc2-1 [Topotecan],12.1 ± 3.9
24,C=CC(=O)Nc1cc2c(Nc3ccc(F)c(Cl)c3)ncnc2cc1OCCCN1CCOCC1 [Canertinib],41.5 ± 21

# Tested on: HCC-38
# Experiment: as above
# Conditions: sgRNA knockout: sgNT, 1 nM
# Description: as §1
row,Compound,relative cell number
1,CC(C)C[C@H](NC(=O)[C@H](Cc1ccccc1)NC(=O)c1cnccn1)B(O)O [Bortezomib],91.8 ± 5.8

# Same assay, conditions: sgRNA knockout: sgNT, 10 nM
row,Compound,relative cell number
1,FC(F)c1nc2ccccc2n1-c1nc(N2CCOCC2)nc(N2CCOCC2)n1 [ZSTK474],90.3 ± 4.3
2,Cc1nc(Nc2ncc(C(=O)Nc3c(C)cccc3Cl)s2)cc(N2CCN(CCO)CC2)n1 [Dasatinib],96.2 ± 12
3,CN/C(=N\CCSCc1nc[nH]c1C)NC#N [Cimetidine],101 ± 16
4,CC(C)C[C@H](NC(=O)[C@H](Cc1ccccc1)NC(=O)c1cnccn1)B(O)O [Bortezomib],36.8 ± 2.4
5,COc1cc(CCc2cc(NC(=O)c3ccc(N4CC(C)NC(C)C4)cc3)n[nH]2)cc(OC)c1 (stereo not drawn) [AZD4547],88.6 ± 1.6
6,CC(C)(C)c1ccc(S(=O)(=O)NCc2ccc(C(=O)Nc3cccnc3)cc2)cc1 [STF31],90.7 ± 9.9
7,CCC[C@H](NC(=O)/C(C#N)=C/c1cccc(Br)n1)c1ccccc1 [WP1130],92.9 ± 2.6
8,O=[N+]([O-])c1ccc(O)c2ncccc12 [Nitroxoline],86.5 ± 3.6
9,O=C1c2c(O)ccc(O)c2C(=O)c2c(NCCNCCO)ccc(NCCNCCO)c21 [Mitoxantrone],33.9 ± 2.3
10,N[C@@H](CC(=O)N1CCn2c(nnc2C(F)(F)F)C1)Cc1cc(F)c(F)cc1F [Sitagliptin],106 ± 10
11,CC(C)[C@H](O)C(=O)N[C@@H](C)C(=O)N[C@@H]1C(=O)N(C)CCc2ccccc21 [Semagacestat],107 ± 6.6
12,C=C1C(=O)O[C@H]2[C@H]1CC/C(C)=C/CC[C@@]1(C)O[C@@H]21 [Parthenolide],114 ± 6.1
13,COc1cc(/C=C/C(=O)CC(=O)/C=C/c2ccc(O)c(OC)c2)ccc1O [Curcumin],100 ± 14
14,Nc1nc(OCc2cc(Br)cs2)c2[nH]cnc2n1 [Lomeguatrib],98.2 ± 6.3
15,C=C(c1ccc(C(=O)O)cc1)c1cc2c(cc1C)C(C)(C)CCC2(C)C [Bexarotene],85.51 ± 0.16
16,Clc1ccc(C2(c3ccc(-c4cn[nH]c4)cc3)CCNCC2)cc1 [AT7867],91.3 ± 5.8
17,CS(=O)(=O)c1cccc(CNc2nc(Nc3ccc4c(c3)CCC(=O)N4)ncc2C(F)(F)F)c1,96.9 ± 21
18,N#Cc1ccc(COC[C@H]2O[C@@H](n3c(NCc4ccc(Cl)c(Cl)c4)nc4c(N)ncnc43)[C@H](O)[C@@H]2O)cc1,90.8 ± 12
19,CN(Cc1cnc2nc(N)nc(N)c2n1)c1ccc(C(=O)N[C@@H](CCC(=O)O)C(=O)O)cc1 [Methotrexate],105 ± 3.4
20,CC(C)CC(=O)Nc1n[nH]c2c1CN(C(=O)C1CCN(C)CC1)C2(C)C,112 ± 16
21,CCCc1nn(C)c2c(=O)[nH]c(-c3cc(S(=O)(=O)N4CCN(C)CC4)ccc3OCC)nc12 [Sildenafil],89.5 ± 15
22,O=C1CCC(N2C(=O)c3ccccc3C2=O)C(=O)N1 (stereo not drawn) [Thalidomide],108 ± 8.4
23,CC(C)(C(=O)NCC(F)(F)C(F)(F)F)C(=O)N[C@@H]1C(=O)Nc2ccccc2-c2ccccc21,118 ± 3.9
24,CC[C@@]1(O)C(=O)OCc2c1cc1n(c2=O)Cc2cc3c(CN(C)C)c(O)ccc3nc2-1 [Topotecan],52.1 ± 9.8
